Results from US20100120775A1, “Farnesoid X Receptor Agonists” (SMITHKLINE BEECHAM CORPORATION, priority 2006, published 2010).

How the values were obtained:
[1] = test system: high-fat diet fed obese mice; assay: Effects of FXR agonists on diet induced obese mice; type: in vivo, C57BL mice; conditions: 10, 30, 100 mg/kg twice a day orally; for body fat mass: QMR; for NEFA / cholesterol / glycerol / insulin / triglyceride: serum
Protocol: Methods: Male 20 to 25 g C57BL mice (Charles River, Indianapolis, Ind.) were housed at 72° F. and 50% relative humidity with a 12 h light and dark cycle and fed with standard rodent chow (Purina 5001, Harlan Teklad, Indianapolis, Ind.) or a high-fat diet (TD93075, Harlan Teklad, Indianapolis, Ind.) for eight weeks. After three weeks, mice on high-fat diet were randomized to vehicle or treatment groups based on fasting glucose and body weight. Starting from the fifth week, mice were given either vehicle or the compound in Example 1 (10, 30, and 100 mg/kg) or the compound in Example 5 (10, 30, 100 mg/kg) twice a day orally. Mice on the standard rodent chow were also given vehicle as a control. Body composition was measured using the quantitative magnetic resonance (QMR) method before and at the end of compound treatment. […] Serum chemistry levels were measured using the Instrumentation Laboratory Ilab600TM clinical chemistry analyzer (Instrumentation Laboratory, Boston, Mass.).

[2] = biological target: T1, Human FXRα Ligand Binding Domain (Homo sapiens, UniProt Q96RI1); assay: FXR Cofactor Binding Assay (FXR LBD / SRC-1 peptide, time resolved fluorescence); conditions: FXRα LBD with biotinylated SRC-1 (LCD2, 676-700) peptide, read-out: Activity (pEC50) (converted)
T1 construct: polyhistidine (pRSET-A vector) (N); made in house; host or cells: E. coli BL21 (DE3), pRSET-A vector
T1 sequence (Q96RI1 237-472 isoform Q96RI1-2): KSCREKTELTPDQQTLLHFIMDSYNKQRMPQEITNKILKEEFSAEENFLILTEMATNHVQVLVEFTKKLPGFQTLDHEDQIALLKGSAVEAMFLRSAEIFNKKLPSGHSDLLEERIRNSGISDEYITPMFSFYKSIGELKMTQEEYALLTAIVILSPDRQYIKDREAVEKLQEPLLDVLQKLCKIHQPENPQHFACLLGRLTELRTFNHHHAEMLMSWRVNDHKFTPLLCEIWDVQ
Excerpt: Determination of a ligand mediated cofactor peptide interaction to quantify ligand binding to the nuclear receptor Farnesoid X Receptor (FXR). The method measures the ability of putative ligands to modulate the interaction between the purified bacterial expressed FXRα ligand binding domain (LBD) and a synthetic biotinylated peptide based on residues 676-700 of steroid receptor coactivator-1 (SRC-1) (LXXLL-containing domain-2 where L is the amino acid leucine and X indicates any other amino acid (LCD2), 676-700). The sequence of the SRC-1 peptide used is as published in Iannone, M. A., et al., 2001 Cytometry 44:326-337 where the N-terminus was biotinylated (B) and the C-terminus was amidated. Detection of the associated complex was measured by time resolved fluorescence (TRF). The purified LBD of FXR was labeled with biotin then mixed with stoichiometric amounts of allophycocyanin (APC) labeled streptavidin (Molecular Probes). The biotinylated peptide was then mixed with a ½ stoichiometric amount of europium labeled streptavidin (Wallac Inc). Each was then blocked with a 5 fold excess of biotin and allowed to equilibrate for 15 min. Equimolar amounts of receptor and peptide were mixed together and were allowed to equilibrate for at least 30 min prior to the addition to either a variable or constant concentrations of the sample for which the affinity is to be determined. After equilibration, the time-resolved fluorescent signal was quantitated using a fluorescent plate reader. The affinity of the test compound was estimated from a plot of fluorescence versus concentration of test compound added.
A basal level of FXR: peptide formation is observed in the absence of added ligand. Ligands that promote the complex formation induce a concentration-dependent increase in time-resolved fluorescent signal. Compounds which bind equally well to both monomeric FXR and to the FXR: peptide complex would be expected to give no change in signal, whereas ligands which bind preferentially to the monomeric receptor would be expected to induce a concentration-dependent decrease in the observed signal.
Human FXRα Ligand Binding Domain (FXRα LBD) was expressed in E. coli strain BL21 (DE3) as an amino-terminal polyhistidine tagged fusion protein. Expression was under the control of an isopropyl-13-D-thiogalactopyranoside (IPTG) inducible T7 promoter. DNA encoding this recombinant protein is subcloned into the pRSET-A expression vector (Invitrogen). The coding sequence of Human FXRα LBD was derived from Genbank accession number U 68233 (amino acids 237 to 472).
Routinely, 30-40 g cell paste (equivalent to 2-3 liters of the fermentation batch) was resuspended in 200-250 mL Tris buffered saline (TBS), pH 7.2 (25 mM Tris-hydroxymethylamino methane (Tris), 150 mM sodium chloride). Cells were lysed by passing 3 times through a French Press and cell debris was removed by centrifugation (30 minutes, 20,000×gravity, 4° C.). The cleared supernatant was filtered through course pre-filters, and TBS, pH 7.2, 500 mM imidazole was added to obtain a final imidazole concentration of 50 mM. This lysate was loaded onto a column (6×8 cm) packed with Sepharose [Ni^|| charged]Chelation resin (Pharmacia) and pre-equilibrated with TBS pH 7.2/50 mM imidazole. After washing to baseline absorbance with equilibration buffer, the column was washed with one column volume of TBS pH 7.2 containing 90 mM imidazole. FXRα LBD was eluted directly with 365 mM imidazole. Column fractions were pooled and dialyzed against TBS, pH 7.2, containing 0.5 mM EDTA and 5 mM DTT. The dialyzed protein sample was concentrated using Centri-prep 10 K (Amicon) and subjected to size exclusion, using a column (3×90 cm) packed with Sepharose S-75 resin (Pharmacia) pre-equilibrated with TBS, pH 7.2, containing 0.5 mM ethylene diamine tetraacetic acid (EDTA) and 5 mM dithiothreitol (DTT). […]

Row | EC50 [2] [nM] | Structure (SMILES) | other results
1 | – | CC(C)c1onc(-c2c(Cl)cccc2Cl)c1COc1ccc(-c2ccc3nc(C(=O)O)ccc3c2)cc1 [Example 1, 6-[4-({[3-(2,6-Dichlorophenyl)-5-(1-methylethyl)-4-isoxazolyl]methyl}oxy)phenyl]-2-quinolinecarboxylic Acid] | serum glucose [1]: decreased; body fat mass [1]: decreased; NEFA [1]: decreased; cholesterol [1]: decreased; glycerol [1]: decreased; insulin [1]: decreased; triglyceride [1]: decreased
2 | 102 to 1000 | CC(C)c1onc(-c2c(Cl)cccc2Cl)c1COc1ccc(-c2ccc3cc(C(=O)O)ncc3c2)cc1 [Example 5, 7-[4-({[3-(2,6-Dichlorophenyl)-5-(1-methylethyl)-4-isoxazolyl]methyl}oxy)phenyl]-3-isoquinolinecarboxylic acid] | serum glucose [1]: decreased; body fat mass [1]: decreased; NEFA [1]: decreased; cholesterol [1]: decreased; glycerol [1]: decreased; insulin [1]: decreased; triglyceride [1]: decreased
3 | 102 to 1000 | CC(C)c1onc(C[S+]([O-])c2c(Cl)cccc2Cl)c1COc1ccc(-c2ccc3nc(C(=O)O)ccc3c2)cc1 (centres unmarked) [Example 23, 6-[4-({[3-{[(2,6-Dichlorophenyl)sulfinyl]methyl}-5-(1-methylethyl)-4-isoxazolyl]methyl}oxy)phenyl]-2-quinolinecarboxylic acid] | –
4 | 1020 to 10000 | CC(C)c1onc(CS(=O)(=O)c2c(Cl)cccc2Cl)c1COc1ccc(-c2ccc3nc(C(=O)O)ccc3c2)cc1 [Example 24, 6-[4-({[3-{[(2,6-Dichlorophenyl)sulfonyl]methyl}-5-(1-methylethyl)-4-isoxazolyl]methyl}oxy)phenyl]-2-quinolinecarboxylic acid] | –
5 | 102 to 1000 | CC(C)c1onc(-c2c(Cl)cncc2Cl)c1COc1ccc(-c2ccc3nc(C(=O)O)ccc3c2)cc1 [Example 25, 6-[4-({[3-(3,5-Dichloro-4-pyridinyl)-5-(1-methylethyl)-4-isoxazolyl]methyl}oxy)phenyl]-2-quinolinecarboxylic acid] | –
6 | 102 to 1000 | O=C(O)c1ccc2cc(-c3ccc(OCc4c(C5CCCC5)noc4C4CCCC4)cc3)ccc2n1 [Example 26, 6-(4-{[(3,5-Dicyclopentyl-4-isoxazolyl)methyl]oxy}phenyl)-2-quinolinecarboxylic acid] | –
7 | 1020 to 10000 | CC(C)c1onc(COC2CCCC2)c1COc1ccc(-c2ccc3nc(C(=O)O)ccc3c2)cc1 [Example 27, 6-[4-({[3-[(Cyclopentyloxy)methyl]-5-(1-methylethyl)-4-isoxazolyl]methyl}oxy)phenyl]-2-quinolinecarboxylic acid] | –
8 | 102 to 1000 | CC(C)c1onc(-c2c(Cl)ccnc2Cl)c1COc1ccc(-c2ccc3nc(C(=O)O)ccc3c2)cc1 [Example 28, 6-[4-({[3-(2,4-Dichloro-3-pyridinyl)-5-(1-methylethyl)-4-isoxazolyl]methyl}oxy)phenyl]-2-quinolinecarboxylic acid] | –
9 | 102 to 1000 | Cc1ccnc(C)c1-c1noc(C(C)C)c1COc1ccc(-c2ccc3nc(C(=O)O)ccc3c2)cc1 [Example 29, 6-[4-({[3-(2,4-Dimethyl-3-pyridinyl)-5-(1-methylethyl)-4-isoxazolyl]methyl}oxy)phenyl]-2-quinolinecarboxylic acid] | –
10 | 102 to 1000 | CC(C)c1onc(-c2c(Cl)cccc2Cl)c1COc1ccc(-c2cc3ccc(C(=O)O)nc3cc2F)cc1 [Example 30, 6-[4-({[3-(2,6-Dichlorophenyl)-5-(1-methylethyl)-4-isoxazolyl]methyl}oxy)phenyl]-7-fluoro-2-quinolinecarboxylic acid] | –
11 | 102 to 1000 | Cc1cc2cc(-c3ccc(OCc4c(-c5c(Cl)cccc5Cl)noc4C(C)C)cc3)ccc2nc1C(=O)O [Example 31, 6-[4-({[3-(2,6-dichlorophenyl)-5-(1-methylethyl)-4-isoxazolyl]methyl}oxy)phenyl]-3-methyl-2-quinolinecarboxylic acid] | –
12 | 102 to 1000 | Cc1cc(-c2ccc3nc(C(=O)O)ccc3c2)ccc1OCc1c(-c2c(Cl)cccc2Cl)noc1C(C)C [Example 32, 6-[4-({[3-(2,6-Dichlorophenyl)-5-(1-methylethyl)-4-isoxazolyl]methyl}oxy)-3-methylphenyl]-2-quinolinecarboxylic acid] | –
13 | 102 to 1000 | Cc1cc(OCc2c(-c3c(Cl)cccc3Cl)noc2C(C)C)ccc1-c1ccc2nc(C(=O)O)ccc2c1 [Example 33, 6-[4-({[3-(2,6-Dichlorophenyl)-5-(1-methylethyl)-4-isoxazolyl]methyl}oxy)-2-methylphenyl]-2-quinolinecarboxylic acid] | –
14 | < 100 | Cc1cc(C(=O)O)nc2ccc(-c3ccc(OCc4c(-c5c(Cl)cccc5Cl)noc4C(C)C)cc3)cc12 [Example 34, 6-[4-({[3-(2,6-Dichlorophenyl)-5-(1-methylethyl)-4-isoxazolyl]methyl}oxy)phenyl]-4-methyl-2-quinolinecarboxylic acid] | –
15 | 102 to 1000 | Cc1nc2ccc(-c3ccc(OCc4c(-c5c(Cl)cccc5Cl)noc4C(C)C)cc3)cc2cc1C(=O)O [Example 35, 6-[4-({[3-(2,6-Dichlorophenyl)-5-(1-methylethyl)-4-isoxazolyl]methyl}oxy)phenyl]-2-methyl-3-quinolinecarboxylic acid] | –
16 | 102 to 1000 | CC(C)c1onc(-c2c(Cl)cccc2Cl)c1COc1ccc(-c2ccc3c(C(=O)O)nccc3c2)cc1 [Example 36, 6-[4-({[3-(2,6-Dichlorophenyl)-5-(1-methylethyl)-4-isoxazolyl]methyl}oxy)phenyl]-1-isoquinolinecarboxylic acid] | –
17 | 102 to 1000 | Cc1nc(C(=O)O)nc2ccc(-c3ccc(OCc4c(-c5c(Cl)cccc5Cl)noc4C(C)C)cc3)cc12 [Example 37, 6-[4-({[3-(2,6-Dichlorophenyl)-5-(1-methylethyl)-4-isoxazolyl]methyl}oxy)phenyl]-4-methyl-2-quinazolinecarboxylic acid] | –
18 | 102 to 1000 | CC(C)c1onc(-c2c(Cl)cccc2Cl)c1CSc1ccc(-c2ccc3nc(C(=O)O)ccc3c2)cc1 [Example 38, 6-[4-({[3-(2,6-Dichlorophenyl)-5-(1-methylethyl)-4-isoxazolyl]methyl}thio)phenyl]-2-quinolinecarboxylic acid] | –
19 | 102 to 1000 | CC(C)c1onc(-c2c(Cl)cccc2Cl)c1COc1ccc(-c2ccc3nc(C(=O)O)cnc3c2)cc1 [Example 39, 6-[4-({[3-(2,6-Dichlorophenyl)-5-(1-methylethyl)-4-isoxazolyl]methyl}oxy)phenyl]-2-quinoxalinecarboxylic acid] | –
